Measurements taken from patent publication US3937838A, “Orally active bronchospasmolytic compounds and their preparation” (priority 1966, dated 1976).
Entries after “also recorded” stand apart in the source; their conditions may differ. Read-outs that look alike come from different tables or passages of the source.

Assays:
[1] = system: right auricle from the guinea pig; test: Dual preparation test in vitro, effect on auricle (Example 5c); settings: slow infusion, FIGS. 2-4
Source text: [This procedure is more fully described below in Example 5 (b)].
FIG. 2 illustrates the effect of epinephrine (EPE) and terbutaline on spirally cut trachea and right auricle from the guinea pig. Both preparations are dissected out from the same animal and run under identical experimental conditions;
Both preparations are dissected out from the same animal, and run under identical experimental conditions;
Both preparations are dissected out from the same animal and run under identical experimental conditions;
The relation between the heart stimulatory effect and bronchodilator effect was studied in vitro on auricle-trachea-preparation from the guinea pig in order to compare the effect on the heart and the effect on the bronchial muscle under identical experimental conditions. Both spontaneously bearing auricle and spirally-cut trachea were placed in the same bath in Krebs solution. Both preparations were taken from the same animal.
The compound to be tested was slowly infused into the bathing solution and the tension was measured for each of the auricle and trachael preparations.
In carrying out this dual preparation test, epinephrine was used as a reference. […] Infusion of epinephrine was made over a period of ten minutes. After washing and recovery, the test solution was infused in the same manner and the effect of the test compound was compared with the effect of epinephrine.
Referring more specifically to FIG. 2, the upper portion of each chart thereof represents the tension continuously recorded of the auricle preparation (shaded area 1 for the effect of epinephrine on the auricle, ref. no. 2 for the effect of terbutaline infused at a rate of 0.2 μg/min on the auricle, and ref. no. 3 for the effect of terbutaline infused at a rate of 0.375μg/min on the auricle).

[2] = system: sphincter of Oddi (choledochoduodenal sphincter); test: Effect on sphincter of Oddi (Example 5e); format: in vivo, cat
Method: The effect of terbutaline on the choledochoduodenal sphincter of young, healthy cats was studied. Young animals weighing at least 2.0 kg were used. After being deprived of food but not water for 24 hours, they were anesthetized with pentobarbitol (40 mg/kg i.p.). The terminal portion of a common bile duct was isolated and cannulated toward the duodenum. The hepatic part of the bile duct was drained to prevent distention. The pressure was continuously recorded by the open tip technique. Details of the experimental set up have been published by Liedberg and Halabi [Acta. Chir. Scand. 136 (1970) page 208.] Heart rate was recorded on all experiments and blood pressure by arterial cannulation in some.
Referring to the upper curve of FIGS. 7 and 8, the heart rate is continuously recorded. Concurrent records are made in the middle curve and lower curve of the pressures measured respectively in the common bile duct and in the lower duodenum.
As a control in this test, the animal was also treated with 0.5 international units per kg of cholecystokinin (CCK).
In a second test of the effect of terbutaline and isoprenaline on the sphincter (see FIG. 8), the duodenal motility was measured without being affected by CCK.

[3] = Acute toxicity in mice (Example 9); settings: mouse, in vivo, mice (base)
guinea pig trachea = test: Bronchospasmolytic effect in vitro (Example 13); settings: based on ED50-values; weight basis; Table 7
Method: The trachea from a guinea pig was dissected out and spirally cut. It was mounted in a water-jacketed bath (37°C.) in Krebs solution and aerated with oxygen (95%) and carbon dioxide (5%). Pilocarpine (2 μg/ml) was added. The load was adjusted to about 2 g and relaxations in the trachea were recorded by means of a Grass force displacement transducer and a Grass polygraph model 5 (see Example 5 above). The cumulative method was used (-)-Epinephrine was used as reference. The comparisons presented in Table 7 are based on ED50 -values.

[4] = Toxicity study in mice (Example 18); format: in vivo; settings: mouse, in vivo, mice (NMRI, male), 24 hours, read-out: LD 50 + Standard error
Method: The toxicity was studied in mice (NMRI, male, 18-28 g) 24 hours after i.v. and oral administration. The animals were observed during five days. No further deaths occurred.

[5] = anesthetized cats, concurrent with sphincter effect

**Q.** Which results are given for `CC(C)(C)NCC(O)c1cc(O)cc(O)c1` (racemic) [terbutaline, 1-(3',5'-dihydroxyphenyl)-2-(t-butylamino)-ethanol]?
**A.** cardiac stimulation in relation to bronchodilator effect ([1]; both preparations in same bath): bronchodilation was obtained without any effect on the heart muscle preparation; effect on auricle (tension) ([1]; 0.375 μg/min where stated): little observable effect on the auricle; number of cats responding (the other five of 25) ([2]; 5-10 μg/kg): five; duodenal pressure / motility [2, 5]: only slightly affects; also recorded: minimum effects; heart rate [2, 5]: only slightly affects the heart rate; also recorded: minimum effects on heart rate; common bile duct pressure / sphincter relaxation ([2]; anesthetized cats, i.v., 1 μg/kg terbutaline in FIG. 7, FIG. 8): substantially reduces the common bile duct pressures; also recorded: relaxed the sphincter; number of cats responding (of 25) ([2]; dose range 0.5-4.0 μg/kg): 20 cats; LD50 ([3]; iv): 47 mg/kg; LD50 ([3]; sc): 240 mg/kg; LD50 ([3]; oral): 3200 mg/kg; bronchospasmolytic effect x (-)epinephrine (guinea pig trachea): 0.8 ± 0.1; LD50 at 24 h ([4]; iv): 52 ± 3 mg/kg; LD50 at 24 h ([4]; po): 3200 mg/kg
